Several values for one entry are separate records, joined by “and”; a condition that tells them apart may be missing. Equal entries are not always repeated.
Target: T1, N-type Ca^2+ channel in IMR-32 cells (Homo sapiens, UniProt Q00975)
T1 construct: host or cells: IMR-32 (differentiated with dibutyryl cAMP and bromodeoxyuridine)
Test: N-type Ca2+ channel blockade in IMR-32 cells (fluorescent Ca2+ indicator Indo-1)
Type: cell-based
Conditions: 5 μM nitrendipine present; for inhibition at 1 µM: IMR-32, 1 μM; for inhibition at 10 µM: IMR-32, 10 μM

T1 sequence (Q00975 whole entry): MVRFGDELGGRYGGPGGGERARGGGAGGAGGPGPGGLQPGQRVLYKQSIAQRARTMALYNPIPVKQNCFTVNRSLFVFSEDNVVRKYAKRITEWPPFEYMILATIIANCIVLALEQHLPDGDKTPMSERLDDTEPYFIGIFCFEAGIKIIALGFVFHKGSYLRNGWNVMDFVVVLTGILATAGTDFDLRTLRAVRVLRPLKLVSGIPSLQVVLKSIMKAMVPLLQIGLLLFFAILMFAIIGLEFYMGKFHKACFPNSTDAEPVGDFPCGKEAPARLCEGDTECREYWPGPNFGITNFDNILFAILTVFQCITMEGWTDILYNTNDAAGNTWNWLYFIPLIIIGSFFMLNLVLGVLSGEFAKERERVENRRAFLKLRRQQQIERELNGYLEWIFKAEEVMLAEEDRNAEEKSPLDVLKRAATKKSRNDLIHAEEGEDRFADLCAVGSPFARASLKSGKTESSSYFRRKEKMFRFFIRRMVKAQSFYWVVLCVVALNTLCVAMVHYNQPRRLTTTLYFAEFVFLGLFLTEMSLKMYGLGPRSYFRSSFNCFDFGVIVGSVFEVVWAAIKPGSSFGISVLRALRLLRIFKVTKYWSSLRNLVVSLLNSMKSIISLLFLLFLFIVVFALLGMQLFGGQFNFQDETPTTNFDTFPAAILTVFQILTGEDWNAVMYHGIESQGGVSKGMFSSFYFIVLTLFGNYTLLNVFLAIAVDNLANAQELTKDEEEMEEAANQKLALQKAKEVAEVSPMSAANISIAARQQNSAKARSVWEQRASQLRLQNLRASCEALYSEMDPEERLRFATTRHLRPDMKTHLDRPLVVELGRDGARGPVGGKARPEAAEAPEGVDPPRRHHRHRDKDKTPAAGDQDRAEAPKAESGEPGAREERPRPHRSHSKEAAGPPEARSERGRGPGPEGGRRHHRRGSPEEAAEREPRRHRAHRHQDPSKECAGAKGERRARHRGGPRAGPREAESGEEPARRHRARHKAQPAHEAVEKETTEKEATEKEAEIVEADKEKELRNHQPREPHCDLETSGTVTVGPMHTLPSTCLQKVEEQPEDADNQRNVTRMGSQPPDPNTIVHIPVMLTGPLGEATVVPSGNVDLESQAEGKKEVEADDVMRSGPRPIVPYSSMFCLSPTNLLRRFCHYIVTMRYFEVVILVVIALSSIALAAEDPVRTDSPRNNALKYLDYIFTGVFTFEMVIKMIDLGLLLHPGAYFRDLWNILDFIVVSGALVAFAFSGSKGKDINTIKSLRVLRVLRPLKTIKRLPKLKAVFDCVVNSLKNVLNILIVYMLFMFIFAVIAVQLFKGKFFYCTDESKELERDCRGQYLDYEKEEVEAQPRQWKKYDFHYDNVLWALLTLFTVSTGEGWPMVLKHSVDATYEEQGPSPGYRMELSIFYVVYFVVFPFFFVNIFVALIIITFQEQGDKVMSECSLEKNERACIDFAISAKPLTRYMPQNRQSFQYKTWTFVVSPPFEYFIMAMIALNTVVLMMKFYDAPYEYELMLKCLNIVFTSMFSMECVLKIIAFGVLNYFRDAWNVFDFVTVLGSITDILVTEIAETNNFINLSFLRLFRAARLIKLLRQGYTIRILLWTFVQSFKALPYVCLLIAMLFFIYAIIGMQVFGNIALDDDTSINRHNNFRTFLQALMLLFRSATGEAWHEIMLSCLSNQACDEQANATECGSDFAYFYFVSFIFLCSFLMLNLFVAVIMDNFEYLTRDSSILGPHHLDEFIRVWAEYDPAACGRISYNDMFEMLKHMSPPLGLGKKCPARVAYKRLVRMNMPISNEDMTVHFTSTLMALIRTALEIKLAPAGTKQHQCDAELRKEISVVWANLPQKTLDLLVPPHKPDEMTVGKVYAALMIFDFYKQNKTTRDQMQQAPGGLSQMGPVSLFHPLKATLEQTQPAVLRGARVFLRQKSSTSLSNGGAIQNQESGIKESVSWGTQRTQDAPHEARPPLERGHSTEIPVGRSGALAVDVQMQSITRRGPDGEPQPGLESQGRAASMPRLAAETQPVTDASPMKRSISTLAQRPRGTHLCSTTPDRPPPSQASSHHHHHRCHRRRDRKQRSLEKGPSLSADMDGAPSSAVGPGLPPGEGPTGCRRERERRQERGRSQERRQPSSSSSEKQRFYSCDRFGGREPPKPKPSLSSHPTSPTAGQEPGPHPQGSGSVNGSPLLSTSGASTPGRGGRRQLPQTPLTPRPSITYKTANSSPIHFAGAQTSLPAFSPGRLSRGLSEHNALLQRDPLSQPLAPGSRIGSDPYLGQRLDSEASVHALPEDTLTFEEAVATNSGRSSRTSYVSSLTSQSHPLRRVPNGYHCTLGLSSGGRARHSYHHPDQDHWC

Row | Structure (SMILES) | inhibition at 1 µM | inhibition at 10 µM | IC50 | IMR 32 % of Blockade @ 1 μM (1 μM)
1 | CC(C)=CCN(c1ccc(OCc2ccccc2)cc1)C1CCN(C(=O)C2CCCC(C)N2CCC(C)C)CC1 (centres unmarked) [Example 16, {4-[(4-Benzyloxy-phenyl)-(3-methyl-but-2-enyl)-amino]-piperidin-1-yl}-[6methyl-1-(3-methyl-butyl)-piperidin-2-yl]-methanone] | 45% | 78% | – | –
2 | CC(C)=CCN(c1ccc(OCc2ccccc2)cc1)C1CCN(Cc2ccc(S(C)(=O)=O)cc2)CC1 [Example 24] | – | – | 1800 nM | –
3 | CC(C)=CCN(c1ccc(C(C)C)cc1)C1CCN(Cc2cccnc2)CC1 [Example 30, (4-Isopropyl-phenyl)-(3-methyl-but-2-enyl)-(1-pyridin-3-ylmethyl-piperidin-4-yl)-amine] | 18% | 79% | – | –
4 | CC(C)=CCN(c1ccc(CCC(C)(C)C)cc1)C1CCN(Cc2ccc(N(C)C)cc2)CC1 [Example 39, [1-(4-Dimethylamino-benzyl)-piperidin-4-yl]-[4-(3,3-dimethyl-butyl)-phenyl]-(3-methyl-but-2-enyl)-amine] | – | – | – | 85% and 60%
5 | CC(C)=CCN(c1ccc(OCc2ccccc2)cc1)C1CCN(Cc2ccccn2)CC1 [Example 9, (4-Benzyloxy-phenyl)-(3-methyl-but-2-enyl)-(1-pyridin-2-ylmethyl-piperidin-4-yl)-amine] | 30% | 100% | – | –
6 | CC(C)=CCN(c1cccc(OCc2ccccc2)c1)C1CCN(CCC(C)(C)C)CC1 [Example 46, (3-Benzyloxy-phenyl)-[1-(3,3-dimethyl-butyl)-piperidin-4-yl]-(3-methyl-but-2-enyl)-amine] | 55% | 98% | – | –
7 | CC(C)=CCN(c1ccc(OCc2ccccc2)cc1)C1CCN(C(=O)C2CN(C)CCN2CCC(C)C)CC1 (centres unmarked) [Example 14, {4-[(4-Benzyloxy-phenyl)-(3-methyl-but-2-enyl)-amino]-piperidin-1-yl}-[4-methyl-1-(3-methyl-butyl)-piperazin-2-yl]-methanone] | 44% | 88% | – | –
8 | CC(C)=CCN(c1ccc(C(C)C)cc1)C1CCN(C(C)CO)CC1 (centres unmarked) [Example 32, 2-{4-[(4-lsopropyl-phenyl)-(3-methyl-but-2-enyl)-amino]-piperidin-1-yl}-propan-1-ol] | 0% | 70% | – | –
9 | CC(C)=CCN(c1ccc(OCc2ccccc2)cc1)C1CCN(C(=O)C2C(C)CCCN2CCC(C)C)CC1 (centres unmarked) [Example 18, {4-[(4-Benzyloxy-phenyl)-(3-methyl-but-2-enyl)-amino]-piperidin-1-yl}-[3-methyl-1-(3-methyl-butyl)-piperidin-2-yl]-methanone] | 60% | 88% | – | –
10 | CC(C)=CCN(c1ccc(OCc2ccccc2)cc1)C1CCN(Cc2ccc(Br)cc2)CC1 [Example 4, (4-Benzyloxy-phenyl)-[1-(4-bromo-benzyl)-piperidin4-yl]-(3-methyl-but-2-enyl)-amine] | 63% | 94% | – | –
11 | CC(C)=CCN(c1ccc(OCc2ccccc2)cc1)C1CCN(C(=O)C2CCCN(CCC(C)C)C2)CC1 (centres unmarked) [Example 12, {4-[(4-Benzyloxy-phenyl)-(3-methyl-but-2-enyl)-amino]-piperidin-1-yl}-[1-(3-methyl-butyl)-piperidin-3-yl]-methanone] | 49% | 75% | – | –
12 | CC(C)=CCN(c1ccc(OC(C)C)cc1)C1CCN(CCC(C)(C)C)CC1 [Example 36] | 26% | 74% | – | –
13 | CC(C)=CCN(c1ccc(CCC(C)(C)C)cc1)C1CCN(Cc2ccc[nH]2)CC1 [Example 47, [4-(3,3-Dimethyl-butyl)-phenyl]-(3-methyl-but-2-enyl)-[1-(1H-pyrrol-2-ylmethyl)-piperidin-4-yl]-amine] | – | – | 900 nM | –
14 | CC(C)=CCN(c1ccc(OCc2ccccc2)cc1)C1CCN(CCc2ccccc2)CC1 [Example 23, (4-Benzyloxy-phenyl)-(3-methyl-but-2-enyl)-(1-phenethyl-piperidin-4-yl)-amine] | – | – | 300 nM | –
15 | CC(C)=CCN(c1ccc(OCc2ccccc2)cc1)C1CCN(C(=O)C2CCCCN2CCC(C)C)CC1 (centres unmarked) [Example 11, {4-[(4-Benzyloxy-phenyl)-(3-methyl-but-2-enyl)-amino]-piperidin-1-yl}-[1-(3-methyl-butyl)-piperidin-2-yl]-methanone] | 41% | 80% | – | –
16 | CC(C)=CCN(c1ccc(CCC(C)(C)C)cc1)C1CCN(CCC(C)(C)C)CC1 [Example 38, [4-(3,3-Dimethyl-butyl)-phenyl]-[1-(3,3-dimethyl-butyl)-piperidin-4-yl]-(3-methyl-but-2-enyl)-amine] | 38% | 83% | – | –
17 | CC(C)CCN(c1ccc(OCC2CCCCC2)cc1)C1CCN(CCC(C)O)CC1 (centres unmarked) [Example 41, 4-{4-[(4-Cyclohexylmethoxy-phenyl)-(3-methyl-butyl)-amino]-piperidin-1-yl}-butan-2-ol] | – | – | 1500 nM | –
18 | CC(C)=CCN(c1ccc(CCC(C)(C)C)cc1)C1CCN(CCC(C)C)CC1 [Example 37, [4-(3,3-Dimethyl-butyl)-phenyl]-(3-methyl-but-2-enyl)-[1-(3-methyl-butyl)-piperidin-4-yl]-amine] | 31% | 92% | – | –

Row | Structure (SMILES) | inhibition at 1 µM | inhibition at 10 µM | IC50 | IMR 32 % of Blockade @ 1 μM (1 μM)
19 | CC(C)=CCN(c1ccc(C(C)C)cc1)C1CCN(CCC(C)(C)C)CC1 [Example 26, [1-(3,3-Dimethyl-butyl)-piperidin-4-yl]-(4-isopropyl-phenyl)-(3-methyl-but-2-enyl)-amine] | 43% | – | – | –
20 | CC(C)=CCN(c1ccc(OCc2ccccc2)cc1)C1CCCN(Cc2ccc(C(C)(C)C)cc2)C1 (centres unmarked) [Example 50, (4-Benzyloxy-phenyl)-[1-(4-tert-butyl-benzyl)-piperidin-3-yl]-(3-methyl-but-2-enyl)-amine] | 86% | 96% | – | –
21 | CC(C)=CCN(c1ccc(OC(C)C)cc1)C1CCN(CCC(C)C)CC1 [Example 34, (4-Isopropoxy-phenyl)-(3-methyl-but-2-enyl)-[1-(3-methyl-butyl)-piperidin-4-yl]-amine] | 23% | 76% | – | –
22 | CC(C)=CCN(c1ccc(C(C)C)cc1)C1CCN(Cc2ccc(F)cc2)CC1 [Example 29, [1-(4-Fluoro-benzyl)-piperidin-4-yl]-(4-isopropyl-phenyl)-(3-methyl-but-2-enyl)-amine] | 17% | 84% | – | –
23 | CC(C)=CCN(c1ccc(OCc2ccccc2)cc1)C1CCN(C2CCOCC2)CC1 [Example 10, (4-Benyloxy-phenyl)-(3-methyl-but-2-enyl)-[1-(tetrahydro-pyran4-yl)-piperidin-4-yl]-amine] | 15% | 62% | – | –
24 | CC(C)=CCN(c1ccc(OCc2ccccc2)cc1)C1CCN(Cc2ccco2)CC1 [Example 21, (4-Benzyloxy-phenyl)-(1-furan-2-ylmethyl-piperidin-4-yl)-(3-methyl-but-2-enyl)-amine] | – | – | 3900 nM | –
25 | CC(C)=CCN(c1ccc(OCc2ccccc2)cc1)C1CCN(Cc2ccc(C(C)(C)C)cc2)CC1 [Example 3, (4-Benzyloxy-phenyl)-[1-(4-tert-butyl-benzyl)-piperidin-4-yl]-(3-methyl-but-2-enyl)-amine] | 96% | – | – | –
26 | CC(C)CCN1CCC(N(CCC(C)C)c2ccc(OCC3CCCCC3)cc2)CC1 [Example 40, (4-Cyclohexylmethoxy-phenyl)-(3-methyl-butyl)-[1-(3-methyl-butyl)-piperidin-4-yl]-amine] | 72% | – | – | –
27 | CC(C)=CCN(c1ccc(C(C)C)cc1)C1CCN(C(=O)[C@@H](O)CC(C)C)CC1 [Example 45, (S)-2-Hydroxy-1-{4-[(4-isopropyl-phenyl)-(3-methyl-but-2-enyl)-arnino]-piperidin-1-yl}-4-methyl-pentan-1-one] | 28% | 85% | – | –
28 | CC(C)=CCN(c1ccc(OCc2ccccc2)cc1)C1CCN(CCCc2ccccc2)CC1 [Example 22, (4-Benzyloxy-phenyl)-(3-methyl-but-2-enyl)-[1-(3-phenyl-propyl)-piperidin-4-yl]-amine] | – | – | 500 nM | –
29 | CC(C)CCN(c1ccc(OCC2CCCCC2)cc1)C1CCN(CCC(C)(C)C)CC1 [Example 42, (4-Cyclohexylmethoxy-phenyl)-[1-(3,3-dimethyl-butyl)-piperidin-4-yl]-(3-methyl-butyl)-amine] | 60% | 81% | – | –
30 | CC(C)=CCN(c1ccc(OCc2ccccc2)cc1)C1CCN(Cc2ccc(F)cc2)CC1 [Example 25, (4-Benzyloxy-phenyl)-[1-(4-fluoro-benzyl)-piperidin4-yl]-(3-methyl-but-2-enyl)-amine] | 62% | – | – | –
31 | CC(C)=CCN(c1ccc(C(C)C)cc1)C1CCN(CCC(C)C)CC1 [Example 28, (4-Isopropyl-phenyl)-(3-methyl-but-2-enyl)-[1-(3-methyl-butyl)-piperidin-4-yl]-amine] | 41% | – | – | –
32 | CC(C)=CCN(c1ccc(C(C)C)cc1)C1CCN(CCC(C)O)CC1 (centres unmarked) [Example 27, 4-{4[(4Isopropyl-phenyl)-(3-methyl-but-2-enyl)-amino]-piperidin-1-yl}-butan-2ol] | 15% | – | – | –
33 | CC(C)=CCN(c1ccc(OC(C)C)cc1)C1CCN(Cc2ccc(F)cc2)CC1 [Example 35, [1-(4-Fluoro-benzyl)-piperidin-4-yl]-(4-isopropoxy-phenyl)-(3-methyl-but-2-enyl)-amine] | 37% | – | – | –
34 | CC(C)CCN(c1ccc(OCc2ccc(F)cc2)cc1)C1CCN(CCC(C)(C)C)CC1 [Example 43, [1-(3,3-Dimethyl-butyl)-piperidin-4-yl]-[4-(4-fluoro-benzyloxy)-phenyl]-(3-methyl-butyl)-amine] | 65% | 99% | – | –
35 | CC(C)=CCN(c1ccc(C(C)C)cc1)C1CCN(Cc2ccc[nH]2)CC1 [Example 33, (4-Isopropyl-phenyl)-(3-methyl-but-2-enyl)-[1-(1H-pyrrol-2-ylmethyl)-piperidin-4-yl]-amine] | 54% | 98% | – | –
